Measurements as given in PubChem BioAssay (NCI).
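Protocol summary: plate cells (96-well), add compound at 5 concentrations, incubate 48 h, interpolate endpoints linearly. Definition used: TGI = concentration required for complete inhibition of growth.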

What was measured:
Experiment in all cases: NCI anticancer screen, dose series, 48 h
786-0 renal = system: 786-0 renal
A549 NSCLC = system: A549 NSCLC
ACHN renal = system: ACHN renal
BT-549 breast = system: BT-549 breast
CAKI-1 renal = system: CAKI-1 renal
CCRF-CEM leukemia = system: CCRF-CEM leukemia
COLO 205 colon = system: COLO 205 colon
DU-145 prostate = system: DU-145 prostate
EKVX NSCLC = system: EKVX NSCLC
HCC-2998 colon = system: HCC-2998 colon
HCT-116 colon = system: HCT-116 colon
HCT-15 colon = system: HCT-15 colon
HL-60(TB) leukemia = system: HL-60(TB) leukemia
HOP-62 NSCLC = system: HOP-62 NSCLC
HT29 colon = system: HT29 colon
IGROV1 ovarian = system: IGROV1 ovarian
K-562 leukemia = system: K-562 leukemia
KM12 colon = system: KM12 colon
LOX IMVI melanoma = system: LOX IMVI melanoma
M14 melanoma = system: M14 melanoma
MALME-3M melanoma = system: MALME-3M melanoma
MCF7 breast = system: MCF7 breast
MDA-MB-231 breast = system: MDA-MB-231 breast
MDA-MB-435 = system: MDA-MB-435
MDA-N = system: MDA-N
MOLT-4 leukemia = system: MOLT-4 leukemia
NCI-H226 lung = system: NCI-H226 lung
NCI-H23 lung = system: NCI-H23 lung
NCI-H460 lung = system: NCI-H460 lung
NCI-H522 lung = system: NCI-H522 lung
NCI/ADR-RES ovarian = system: NCI/ADR-RES ovarian
OVCAR-3 ovarian = system: OVCAR-3 ovarian
OVCAR-4 ovarian = system: OVCAR-4 ovarian
OVCAR-5 ovarian = system: OVCAR-5 ovarian
OVCAR-8 ovarian = system: OVCAR-8 ovarian
PC-3 prostate = system: PC-3 prostate
RPMI-8226 leukemia = system: RPMI-8226 leukemia
SF-268 CNS = system: SF-268 CNS
SF-295 CNS = system: SF-295 CNS
SF-539 CNS = system: SF-539 CNS
SK-MEL-2 melanoma = system: SK-MEL-2 melanoma
SK-MEL-28 melanoma = system: SK-MEL-28 melanoma
SK-MEL-5 melanoma = system: SK-MEL-5 melanoma
SK-OV-3 ovarian = system: SK-OV-3 ovarian
SN12C renal = system: SN12C renal
SNB-19 CNS = system: SNB-19 CNS
SNB-75 CNS = system: SNB-75 CNS
SW-620 colon = system: SW-620 colon
TK-10 renal = system: TK-10 renal
U251 CNS = system: U251 CNS
UACC-257 melanoma = system: UACC-257 melanoma
UACC-62 melanoma = system: UACC-62 melanoma

Measured: TGI

Cc1cc(S(=O)(=O)Nc2nc3ccsc3c(=O)n2N)c(S)cc1Cl
88 µM: NCI-H226 lung
> 100 µM: all other assays above
